According to BindingDB's records for patent US11192859 (2021):

Target: Advanced glycosylation end product-specific receptor (Homo sapiens, UniProt Q15109)
Assay: Inhibitory Activity Assay
Protocol: Table 2-3: Step 1. Add 50 μl anti-DIAPH1 (1:160 dilution in 0.1M NaHCO3 pH 9.6)/well. Incubate overnight at 4° C. Day 2 Step 2. Use the plate washer to aspirate anti-DIAPH11 and wash plates 4× with PBS 100 μl per well per wash. Step 3. Add 180 μl 3% BSA in 1×PBS. Incubate for 1.5 hrs at room temperature Step 4. Use the plate washer to aspirate the blocking solution and wash 5× with PBS 300 μl per well. Step 5. Add 50 μl of DIAPH1 containing lysate (85 μg) and incubate at RT for 3 hours. Step 6. Aspirate the lysate and wash the plate 5×(100 μl) on the plate washer. Step 7. Add 25 μl PBS to the wells. Step 8. Add 0.5 μL compound per well. Step 9. Add 24.5 μL GFP RAGE tail (125 nM) into each well for 2 hrs at room temperature. Step 10. Aspirate and wash 5× with PBS (100 μL) on the plate washer. Step 11. Add 100 μl PBS in each well. Step 12. Detection: Read on fluorescence plate reader excitation 435 nm and 485 nm emission

Advanced glycosylation end product-specific receptor, sequence (Q15109 whole entry): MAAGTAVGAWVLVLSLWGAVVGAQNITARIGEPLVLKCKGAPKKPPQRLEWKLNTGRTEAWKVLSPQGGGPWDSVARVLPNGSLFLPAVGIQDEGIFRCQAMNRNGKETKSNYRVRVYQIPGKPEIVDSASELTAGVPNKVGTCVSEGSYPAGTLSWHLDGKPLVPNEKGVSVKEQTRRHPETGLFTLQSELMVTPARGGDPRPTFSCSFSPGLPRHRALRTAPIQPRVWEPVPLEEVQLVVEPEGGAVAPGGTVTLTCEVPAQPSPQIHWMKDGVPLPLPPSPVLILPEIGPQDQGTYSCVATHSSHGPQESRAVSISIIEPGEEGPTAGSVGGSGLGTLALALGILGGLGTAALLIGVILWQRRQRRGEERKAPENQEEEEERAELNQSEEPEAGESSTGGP

Question: Which Kd does the source give for `CC(=O)Nc1ccc(-c2cc(C(=O)NCCN(C)C)c3ccccc3n2)cc1` [US11192859, Compound 4] here?
Answer: The Kd was 56 µM.

Question: For `CC(=O)Nc1ccc(-c2cc(C(=O)N3CCOCC3)c3ccccc3n2)cc1` [US11192859, Compound 5], which Kd is on record?
Answer: Its Kd is 41 µM.

Question: For `COCCNC(=O)c1cc(-c2ccc(NC(C)=O)cc2)nc2ccccc12` [US11192859, Compound 6], which Kd is on record?
Answer: Its Kd is 99 µM.

Question: Which Kd does the source give for `CC(=O)Nc1ccc(-c2cc(C(=O)N3CCCC3)c3ccccc3n2)cc1` [US11192859, Compound 7] here?
Answer: Its Kd is 77 µM.
